In patent EP0007294A2, “Membrane stabilizing compounds having beta-receptor blocking activity, their preparation, method for treatment of arrhythmic conditions, and pharmaceutical preparations containing same” (priority 1978, dated 1980):
Where two headings read alike, the source gives them in different places.

What was measured:
[1] = test system: ouabain-induced arrhythmias; assay: Ouabain-induced arrhythmias in anesthetized guinea-pigs; type: in vivo; conditions: for A-A EFFECT IN NUMBER OF ANIMALS: animals with antiarrhythmic effect / animals tested; for LOWEST FREQUENCY: frequency of ventricular premature beats after test solution; for ASYSTOLE: time of asystole under continued ouabain; for V-FIB: time of ventricular fibrillation under continued ouabain
Experimental: Guinea-pigs of either.sex (300-400 g) were anesthetized with urethane 1,4 g/kg i.p. and tracheotomized. ECG, lead II was picked up with needle electrodes and was registered continuously throughout the experiment. Two i.v. catheters were inserted: one for the administration of ouabain, the other for the test solution.
The experimental design for the study of antiarrhythmic activities is schematically shown in the head of Table 2. The arrhythmia was induced by automatic infusion of ouabain, 18 µg/kg/60" every two minutes for twelve minutes and thereafter 9 µg/kg/30" every two minutes throughout the whole experiment and the infusion was not stopped until asystole occurred. As soon as the frequency of ventricular premature beats (VPB) had passed 50 per cent, the test solution was given i.v. (0,2 ml/min) during 2 min. (see head of Table 2).

[2] = Conscious dogs with ligation of a coronary artery according to Harris: ectopics and convulsions; type: in vivo; conditions: in vivo
Source text: (§1) Male beagle dogs, 7-13 kg, undergo two days prior to the test a surgical ligation of a coronary artery. On the day of the test the conscious dog is secured in a canvas sling in a standing position and given increasing doses of the test compounds by intravenous administration. ECG, blood pressure etc are monitored and attention is paid to all CNS-effects. The dogs have almost 100 percent of ectopics prior to administration of the compound to be tested. Effects of the test drug on the frequency of ectopics are calculated from ECG. The accumulative end doses giving 50% and 90% reduction of ectopics as well as the ED50 values which give convulsions (side-effect) are measured and given below in Table 3. The value for convulsions is a mean value for 3-5 dogs.
(§2) x) The value given is the final value in a series of doses 0.5 + 1 + 2 + 4 + 8 mg/kg i.v. giving 50% reduction of ectopics. 30 min interval between doses.
(§3) Table 3: Antiarrythmic effect and CNS-effects of four β-receptor blockers, a membrane stabilizer, and ten new compounds with combined β-blocking and membrane stabilizing effect.

ectopics = assay: as above; type: in vivo; conditions: Canis lupus familiaris, iv.; for ED50: accumulative end dose giving 50% reduction of ectopics, read-out: Conscious dog Harris ligation Ectopics -50%; for ED90: accumulative end dose giving 90% reduction of ectopics, read-out: Conscious dog Harris ligation Ectopics -90%
Source text: as §1, §2, §3

[3] = Alternative chloroform test on mice: ventricular tachycardia inhibition and ataxia; type: in vivo; conditions: mouse, in vivo
Experimental: (§4) In an alternative chloroform test on mice the ventricular tachycardia inhibition by the test compounds are observed. Thereby the test solution is given subcutaneous and the animal is observed for CNS-effects for 20 min. The mouse is put into a chamber with chloroform until it stops breathing (approx 30 sec.). The animal is then secured on a cork-board and ECG is monitored. If the ventricular rythm is less than 520 beats per min., the animal was protected against ventricular tachycardia. Groups of 10 animals were tested for each dose-level'and the ED50-values have been calculated therefrom. During the test the side-effect ataxia (incordination of movements) is observed.
(§5) In Table 5, as shown, the new compounds tested exerted antiarrhythmic effects also in this te-st.

[4] = test system: chloroform induced ventricular tachy-cardia; assay: as above; type: in vivo; conditions: Mus musculus; sc.; mice, chloroform; groups of 10 animals per dose-level
Experimental: as §4, §5

[5] = test system: chloroform-induced ventricular arrhythmias; assay: Chloroform-induced ventricular arrhythmias (fibrillation) in mice, intraperitoneal dose; conditions: for Number of Animals Dead / Number of Animals Protected: dose 100 mg/kg intraperitoneal, 10 treated; for Number of Animals Protected: protected against CHCl3-induced ventricular fibrillation; for Number of Animals Convulsive / Number of Animals LRR: mouse, in vivo, ip, 100 mg/kg
Source text: Mice were given an intraperitoneal dose of the test compound. Twenty minutes after dose, they were suffocated in chloroform vapor.- When the animals stopped breathing, the chest was opened to inspect for fibrillation. If the heart was not fibrillating, it was prodded.
Signs of CNS toxicity were noted during the 20-minute interval between dosing and challenge.
"Protected" means number of animals protected against CHC13- induced ventricular fibrillation.

[6] = iv., conscious dog, mean value for 3-5 dogs, read-out: ED50 Convulsive
[7] = sc., mice, observed for 20 min, read-out: Ataxia ED50

Structure (SMILES): CC(C)NC[C@@H](O)COc1cccc2ccccc12 [D-Propranolol]
- A-A EFFECT IN NUMBER OF ANIMALS ([1]; dose 0.3 mg/kg i.v.): 6/8
- A-A EFFECT IN NUMBER OF ANIMALS ([1]; dose 1.0 mg/kg i.v.): 6/6
- LOWEST FREQUENCY ([1]; dose 0.3 mg/kg i.v.): 36±5%
- LOWEST FREQUENCY ([1]; dose 1.0 mg/kg i.v.): 5±3%
- ASYSTOLE ([1]; dose 0.3 mg/kg i.v.): 22 ± 1 min
- ASYSTOLE ([1]; dose 1.0 mg/kg i.v.): 29 ± 1 min
- V-FIB ([1]; dose 0.3 mg/kg i.v.): 14 ± 1 min
- V-FIB ([1]; dose 1.0 mg/kg i.v.): 23 ± 2 min
- TD50 [2, 6]: 8 mg/kg
- ED50 (ectopics): 1 mg/kg
- ED90 (ectopics): 4 mg/kg
- TD50 at 20 min [3, 7]: ~30 mg/kg
- ED50 [4]: ~8 mg/kg

Structure (SMILES): CC(=O)Nc1ccc(OCC(O)CNC(C)C)cc1 (stereo not shown) [Practolol, reference compound]
- TD50 [2, 6]: > 16 mg/kg
- ED50 (ectopics): > 16 mg/kg
- ED90 (ectopics): > 16 mg/kg
- TD50 at 20 min [3, 7]: > 50 mg/kg
- ED50 [4]: 2 mg/kg

Structure (SMILES): COCCc1ccc(OCC(O)CNCCCCc2ccccc2)cc1 (stereo not shown) [Ex. 11, 3-(4-phenylbutylamino)-1-[4-(2-methoxyethyl)phenoxy]-propanol--2]
- TD50 [2, 6]: 8 mg/kg
- ED50 (ectopics): 1 mg/kg
- ED90 (ectopics): 2 mg/kg
- TD50 at 20 min [3, 7]: > 50 mg/kg
- ED50 [4]: 15 mg/kg

Structure (SMILES): COCCc1ccc(OCC(O)CNCCCc2ccccc2)cc1 (stereo not shown) [Ex. 10, 3-(3-phenylpropylamino)-1-[4-(2-methoxyethyl)phenoxy]-propanol-2]
- TD50 ([2]; dog, iv): > 8 mg/kg
- ED50 (ectopics): 2 mg/kg
- ED90 (ectopics): 4 mg/kg
- TD50 at 20 min ([3]; sc): > 50 mg/kg
- ED50 [4]: 3 mg/kg

Structure (SMILES): COCCc1ccc(OCC(O)CNC(C)C)cc1 (stereo not shown) [Metoprolol]
- A-A EFFECT IN NUMBER OF ANIMALS ([1]; dose 0.03 mg/kg i.v.): 6/6
- A-A EFFECT IN NUMBER OF ANIMALS ([1]; dose 0.1 mg/kg i.v.): 6/6
- A-A EFFECT IN NUMBER OF ANIMALS ([1]; dose 0.3 mg/kg i.v.): 6/6
- LOWEST FREQUENCY ([1]; dose 0.03 mg/kg i.v.): 34±5%
- LOWEST FREQUENCY ([1]; dose 0.1 mg/kg i.v.): 16±7%
- LOWEST FREQUENCY ([1]; dose 0.3 mg/kg i.v.): 1±1%
- ASYSTOLE ([1]; dose 0.03 mg/kg i.v.): 35 ± 4 min
- ASYSTOLE ([1]; dose 0.1 mg/kg i.v.): 38 ± 5 min
- ASYSTOLE ([1]; dose 0.3 mg/kg i.v.): 48 ± 6 min
- V-FIB ([1]; dose 0.03 mg/kg i.v.): 25 ± 3 min
- V-FIB ([1]; dose 0.1 mg/kg i.v.): 32 ± 5 min
- V-FIB ([1]; dose 0.3 mg/kg i.v.): 37 ± 3 min
- TD50 ([2]; dog, iv): > 8 mg/kg
- ED50 (ectopics): 4 mg/kg
- ED90 (ectopics): 8 mg/kg
- TD50 at 20 min ([3]; sc): > 50 mg/kg
- ED50 [4]: 2.6 mg/kg

Structure (SMILES): CCN(CC)CC(=O)Nc1c(C)cccc1C [Lidocaine]
- A-A EFFECT IN NUMBER OF ANIMALS ([1]; dose 4.0 mg/kg i.v.): 5/5
- A-A EFFECT IN NUMBER OF ANIMALS ([1]; dose 12.0 mg/kg i.v.): 5/6
- LOWEST FREQUENCY ([1]; dose 4.0 mg/kg i.v.): 10±1%
- LOWEST FREQUENCY ([1]; dose 12.0 mg/kg i.v.): 5±3%
- ASYSTOLE ([1]; dose 4.0 mg/kg i.v.): 21 ± 1 min
- ASYSTOLE ([1]; dose 12.0 mg/kg i.v.): 30 ± 3 min
- V-FIB ([1]; dose 4.0 mg/kg i.v.): 15 ± 2 min
- V-FIB ([1]; dose 12.0 mg/kg i.v.): 22 ± 3 min
- Number of Animals Dead [5]: 0
- Number of Animals Protected [5]: 5
- Number of Animals Convulsive [5]: 10
- Number of Animals LRR [5]: 10

Structure (SMILES): COCCc1ccc(OCC(O)CNCCc2ccccc2)cc1 (stereo not shown) [Ex. 1]
- A-A EFFECT IN NUMBER OF ANIMALS ([1]; dose 0.3 mg/kg i.v.): 4/8
- A-A EFFECT IN NUMBER OF ANIMALS ([1]; dose 1.0 mg/kg i.v.): 9/9
- LOWEST FREQUENCY ([1]; dose 0.3 mg/kg i.v.): 38±13%
- LOWEST FREQUENCY ([1]; dose 1.0 mg/kg i.v.): 9±4%
- ASYSTOLE ([1]; dose 0.3 mg/kg i.v.): 28 ± 1 min
- ASYSTOLE ([1]; dose 1.0 mg/kg i.v.): 38 ± 4 min
- V-FIB ([1]; dose 0.3 mg/kg i.v.): 19 ± 1 min
- V-FIB ([1]; dose 1.0 mg/kg i.v.): 31 ± 4 min
- Number of Animals Dead [5]: 0
- Number of Animals Protected [5]: 9
- Number of Animals Convulsive [5]: 1
- Number of Animals LRR [5]: 0

Structure (SMILES): COCc1ccc(OCC(O)CNCCc2ccccc2)cc1 (stereo not shown) [Ex. 7]
- TD50 ([2]; dog, iv): > 8 mg/kg
- ED50 (ectopics): 4 mg/kg
- ED90 (ectopics): 8 mg/kg
- TD50 at 20 min ([3]; sc): ~100 mg/kg
- ED50 [4]: ~50 mg/kg

Structure (SMILES): COCCc1ccc(OCC(O)CNC(C)Cc2ccc(O)cc2)c(Br)c1 (stereo not shown) [EX 4, 3-[1-methyl-2-i4-hydroxyphenyl)-ethylaminol-1-[4-(2-methoxyethyl)-2-bromophenoxy]-propanol-2]
- A-A EFFECT IN NUMBER OF ANIMALS ([1]; dose 0.3 mg/kg i.v.): 3/6
- A-A EFFECT IN NUMBER OF ANIMALS ([1]; dose 1.0 mg/kg i.v.): 6/6
- LOWEST FREQUENCY ([1]; dose 0.3 mg/kg i.v.): 31±14%
- LOWEST FREQUENCY ([1]; dose 1.0 mg/kg i.v.): 6±3%
- ASYSTOLE ([1]; dose 0.3 mg/kg i.v.): 27 ± 1 min
- ASYSTOLE ([1]; dose 1.0 mg/kg i.v.): 41 ± 3 min
- V-FIB ([1]; dose 0.3 mg/kg i.v.): 19 ± 1 min
- V-FIB ([1]; dose 1.0 mg/kg i.v.): 31±3 (N=4) min
